Measured values as given in US20230203480A1, “LIPID NANOPARTICLE FORMULATIONS FOR CRISPR/CAS COMPONENTS” (Intellia Therapeutics, Inc., priority 2016, published 2023).

Assay: Pharmacokinetic profile of Lipid A in liver and plasma (LC/MS)
Type: in vivo, mouse
Settings: mice, after LNP administration
Experimental: Three different guide sequences were separately formulated, according to Example 1, and injected into mice (n=3) to determine the pharmacokinetic profile of Lipid A. Levels of Lipid A in mouse liver and plasma were measured by LC/MS. […] Tmax in liver was achieved within 30 minutes of administration, whereas T112 in plasma and liver were achieved within approximately 5-6 hours of LNP administration.

CCCCC/C=C\C/C=C\CCCCCCCC(=O)OCC(COC(=O)CCC(OCCCCCCCC)OCCCCCCCC)COC(=O)OCCCN(CC)CC (stereo not drawn) [Lipid A, (9Z,12Z)-3-((4,4-bis(octyloxy)butanoyl)oxy)-2-((((3-(diethylamino)propoxy)carbonyl)oxy)methyl)propyl octadeca-9,12-dienoate]
Tmax (CD-1, mouse, liver, intravenous): ≤ 30 min
T112 in liver: 5 to 6 h
T112 in plasma: 5 to 6 h
